The source of these data is article PMC6856131, “Pathways to defense metabolites and evading fruit bitterness in genus Solanum evolved through 2-oxoglutarate-dependent dioxygenases” (Nature Communications, 2019).

One assay deals with T1, GAME31 (tomato) (Solanum lycopersicum, UniProt A0A6F8PJG0).
T1 construct: gene 23DOX
The assay is classed as biochemical. The settings on record: alpha-ketoglutarate 10 mM, ascorbate 10 mM, FeSO4 500 uM, pH 7.5, 30 °C, 3 h.

For the next assay, the system named is T2, ScGAME32-8380-1-2.
T2 construct: pET28b, E. coli BL21 (DE3), Ni-NTA purified
Put plainly: hydroxylation assay, UPLC-qTOF-MS. It counts as biochemical, Solanum chacoense. The settings on record: alpha-ketoglutarate 10 mM, ascorbate 10 mM, FeSO4 500 uM, pH 7.5, 30 °C, 3 h; standard contains isomer impurities.

The next assay concerns T3, ScGAME32-8380-1-1.
T3 construct: pET28b, E. coli BL21 (DE3), Ni-NTA purified
Put plainly: hydroxylation assay, UPLC-qTOF-MS. The assay is classed as biochemical, Solanum chacoense. The settings on record: alpha-ketoglutarate 10 mM, ascorbate 10 mM, FeSO4 500 uM, pH 7.5, 30 °C, 3 h; standard contains isomer impurities.

T2 sequence (DOC6856131_7 entry or part of it): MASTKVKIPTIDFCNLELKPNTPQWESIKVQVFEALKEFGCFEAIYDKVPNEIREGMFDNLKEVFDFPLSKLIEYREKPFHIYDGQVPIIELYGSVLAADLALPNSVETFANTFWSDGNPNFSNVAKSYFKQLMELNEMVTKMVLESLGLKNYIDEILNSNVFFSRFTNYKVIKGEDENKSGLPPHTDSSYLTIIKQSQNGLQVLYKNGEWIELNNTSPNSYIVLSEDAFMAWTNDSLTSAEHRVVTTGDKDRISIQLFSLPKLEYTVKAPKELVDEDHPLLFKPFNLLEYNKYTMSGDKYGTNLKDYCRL
T3 sequence (DOC6856131_6 entry or part of it): as the sequence (DOC6856131_7 entry or part of it) above, with L288M, N292L, Y301S counted along it
T1 sequence (A0A6F8PJG0 entry or part of it): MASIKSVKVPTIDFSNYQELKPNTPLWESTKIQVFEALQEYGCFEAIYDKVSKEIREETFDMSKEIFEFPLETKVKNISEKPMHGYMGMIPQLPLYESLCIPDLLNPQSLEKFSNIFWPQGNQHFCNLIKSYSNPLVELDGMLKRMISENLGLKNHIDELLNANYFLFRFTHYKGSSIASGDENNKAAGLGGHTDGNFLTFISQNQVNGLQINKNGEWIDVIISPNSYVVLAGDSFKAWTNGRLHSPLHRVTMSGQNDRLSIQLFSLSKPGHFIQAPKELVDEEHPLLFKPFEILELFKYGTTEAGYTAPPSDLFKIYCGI

For `C[C@@H]1CC[C@@]2(NC1)O[C@H]1C[C@H]3[C@@H]4CC=C5C[C@@H](O[C@@H]6O[C@H](CO)[C@@H](O[C@@H]7O[C@@H](C)[C@H](O)[C@@H](O)[C@H]7O)[C@H](O)[C@H]6O[C@@H]6O[C@@H](C)[C@H](O)[C@@H](O)[C@H]6O)CC[C@]5(C)[C@H]4CC[C@]3(C)[C@H]1[C@@H]2C` [α-solamargine], on GAME31 (tomato), the “hydroxylation assay, UPLC-qTOF-MS” value was “hydroxy-solasodine, and hydroxy-solamargine from dehydrotomatine, solasodine, and α-solamargine, respectively”. For `C[C@H]1CC[C@@H]2[C@@H](C)[C@H]3[C@H](C[C@H]4[C@@H]5CC=C6C[C@@H](O[C@@H]7O[C@H](CO)[C@@H](O[C@@H]8O[C@@H](C)[C@H](O)[C@@H](O)[C@H]8O)[C@H](O)[C@H]7O[C@@H]7O[C@@H](C)[C@H](O)[C@@H](O)[C@H]7O)CC[C@]6(C)[C@H]5CC[C@]34C)N2C1` [α-chaconine], the “hydroxylation assay, UPLC-qTOF-MS” value in the assay with ScGAME32-8380-1-2 is “Incubation of ScGAME32-8380-1-1 or ScGAME32-8380-1-2 with α-chaconine and α-solanine resulted in the formation”; in the assay on ScGAME32-8380-1-1, “Incubation of ScGAME32-8380-1-1 or ScGAME32-8380-1-2 with α-chaconine and α-solanine resulted in the formation”.
